Assay results reported in PubChem BioAssay (NCI).
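GI50 is the concentration that inhibits growth by half. TGI marks complete inhibition of growth.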

Key:
Assay in all cases: DTP human tumour cell line panel, 384-well format
MCF7 breast = system: MCF7 breast
CAKI-1 renal = system: CAKI-1 renal
TK-10 renal = system: TK-10 renal
MDA-MB-435 melanoma = system: MDA-MB-435 melanoma
EKVX NSCLC = system: EKVX NSCLC
NCI-H522 lung = system: NCI-H522 lung
U251 glioblastoma = system: U251 glioblastoma
SK-OV-3 ovarian = system: SK-OV-3 ovarian
SR leukemia = system: SR leukemia
RXF 393 renal = system: RXF 393 renal
KM12 colon = system: KM12 colon
SF-539 CNS = system: SF-539 CNS
SK-MEL-5 melanoma = system: SK-MEL-5 melanoma
SF-295 CNS = system: SF-295 CNS
NCI-H322M lung = system: NCI-H322M lung
SN12C renal = system: SN12C renal
LOX IMVI melanoma = system: LOX IMVI melanoma
OVCAR-4 ovarian = system: OVCAR-4 ovarian
SW-620 colon = system: SW-620 colon
COLO 205 colon = system: COLO 205 colon
HOP-92 NSCLC = system: HOP-92 NSCLC
IGROV1 ovarian = system: IGROV1 ovarian
786-0 renal = system: 786-0 renal
BT-549 breast = system: BT-549 breast
HS 578T breast = system: HS 578T breast
ACHN renal = system: ACHN renal
UACC-62 melanoma = system: UACC-62 melanoma
CCRF-CEM leukemia = system: CCRF-CEM leukemia
MDA-MB-468 breast = system: MDA-MB-468 breast
SNB-75 CNS = system: SNB-75 CNS
NCI-H226 lung = system: NCI-H226 lung
UO-31 renal = system: UO-31 renal
A549 NSCLC = system: A549 NSCLC
K-562 leukemia = system: K-562 leukemia
RPMI-8226 leukemia = system: RPMI-8226 leukemia
M14 melanoma = system: M14 melanoma
HT29 colon = system: HT29 colon
HCT-15 colon = system: HCT-15 colon
UACC-257 melanoma = system: UACC-257 melanoma
OVCAR-8 ovarian = system: OVCAR-8 ovarian
A498 renal = system: A498 renal
T-47D breast = system: T-47D breast
SK-MEL-28 melanoma = system: SK-MEL-28 melanoma
HCC-2998 colon = system: HCC-2998 colon
SNB-19 CNS = system: SNB-19 CNS
DU-145 prostate = system: DU-145 prostate
NCI/ADR-RES ovarian = system: NCI/ADR-RES ovarian
MOLT-4 leukemia = system: MOLT-4 leukemia
MALME-3M melanoma = system: MALME-3M melanoma
HOP-62 NSCLC = system: HOP-62 NSCLC
NCI-H460 NSCLC = system: NCI-H460 NSCLC
PC-3 prostate = system: PC-3 prostate
HL-60(TB) leukemia = system: HL-60(TB) leukemia
SF-268 CNS = system: SF-268 CNS
OVCAR-5 ovarian = system: OVCAR-5 ovarian
OVCAR-3 ovarian = system: OVCAR-3 ovarian
NCI-H23 lung = system: NCI-H23 lung
MDA-MB-231 breast = system: MDA-MB-231 breast

`CN1CCN(c2nc(C3=C(c4c[nH]c5ccccc45)C(=O)NC3=O)c3ccccc3n2)CC1` showed a GI50 (MCF7 breast) of 10.9 µM, a TGI (MCF7 breast) of 23 µM and a GI50 (CAKI-1 renal) of 16.3 µM. It also gave a TGI (CAKI-1 renal) of 32.3 µM, a GI50 (TK-10 renal) of 17.8 µM and a TGI (TK-10 renal) of 44.2 µM. The GI50 (MDA-MB-435 melanoma) was 16.6 µM, the TGI (MDA-MB-435 melanoma) was 30.2 µM and the GI50 (EKVX NSCLC) was 17.8 µM. For the same molecule, the TGI (EKVX NSCLC) was 33.2 µM, the GI50 (NCI-H522 lung) was 15.4 µM and the TGI (NCI-H522 lung) was 28.7 µM. It also gave a GI50 (U251 glioblastoma) of 16.1 µM, a TGI (U251 glioblastoma) of 29.9 µM and a GI50 (SK-OV-3 ovarian) of 18.1 µM. It also gave a TGI (SK-OV-3 ovarian) of 38.8 µM, a GI50 (SR leukemia) of 7.06 µM and a TGI (SR leukemia) of 19.7 µM. The GI50 (RXF 393 renal) was 15.1 µM, the TGI (RXF 393 renal) was 28.4 µM and the GI50 (KM12 colon) was 3.7 µM. The TGI (KM12 colon) was 15.4 µM, the GI50 (SF-539 CNS) was 15 µM and the TGI (SF-539 CNS) was 28.3 µM. The GI50 (SK-MEL-5 melanoma) was 5.58 µM, the TGI (SK-MEL-5 melanoma) was 18.7 µM and the GI50 (SF-295 CNS) was 18.6 µM. It also gave a TGI (SF-295 CNS) of 32.7 µM, a GI50 (NCI-H322M lung) of 16.3 µM and a TGI (NCI-H322M lung) of 31.2 µM. The GI50 (SN12C renal) was 13.2 µM, the TGI (SN12C renal) was 26.3 µM and the GI50 (LOX IMVI melanoma) was 16.1 µM. It also gave a TGI (LOX IMVI melanoma) of 29.7 µM, a GI50 (OVCAR-4 ovarian) of 21.8 µM and a TGI (OVCAR-4 ovarian) of 44.6 µM. It also gave a GI50 (SW-620 colon) of 18.5 µM, a TGI (SW-620 colon) of 32.6 µM and a GI50 (COLO 205 colon) of 6.82 µM. The TGI (COLO 205 colon) was 19.6 µM, the GI50 (HOP-92 NSCLC) was 15.8 µM and the TGI (HOP-92 NSCLC) was 29.4 µM. It also gave a GI50 (IGROV1 ovarian) of 18.1 µM, a TGI (IGROV1 ovarian) of 34.5 µM and a GI50 ([…]-0 renal) of 13.8 µM. It also gave a TGI (786-0 renal) of 26.9 µM, a GI50 (BT-549 breast) of 13.5 µM and a TGI (BT-549 breast) of 26.3 µM. The GI50 (HS 578T breast) was 16.8 µM, the TGI (HS 578T breast) was 30.5 µM and the GI50 (ACHN renal) was 15.5 µM. The TGI (ACHN renal) was 30 µM, the GI50 (UACC-62 melanoma) was 15.4 µM and the TGI (UACC-62 melanoma) was 28.8 µM. It also gave a GI50 (CCRF-CEM leukemia) of 13.1 µM, a TGI (CCRF-CEM leukemia) of 25.9 µM and a GI50 (MDA-MB-468 breast) of 18.3 µM. It also gave a TGI (MDA-MB-468 breast) of 32.5 µM, a GI50 (SNB-75 CNS) of 19.9 µM and a TGI (SNB-75 CNS) of 37.3 µM. The GI50 (NCI-H226 lung) was 13.4 µM, the TGI (NCI-H226 lung) was 30.3 µM and the GI50 (UO-31 renal) was 17.9 µM. The TGI (UO-31 renal) was 44.9 µM, the GI50 (A549 NSCLC) was 16.9 µM and the TGI (A549 NSCLC) was 36.6 µM. It also gave a GI50 (K-562 leukemia) of 12.2 µM, a TGI (K-562 leukemia) of 24.7 µM and a GI50 (RPMI-8226 leukemia) of 10.1 µM. For the same molecule, the TGI (RPMI-8226 leukemia) was 21.7 µM, the GI50 (M14 melanoma) was 13.9 µM and the TGI (M14 melanoma) was 26.8 µM. The GI50 (HT29 colon) was 13.9 µM, the TGI (HT29 colon) was 27.4 µM and the GI50 (HCT-15 colon) was 12.1 µM. It also gave a TGI (HCT-15 colon) of 28.4 µM, a GI50 (UACC-257 melanoma) of 13.6 µM and a TGI (UACC-257 melanoma) of 26.5 µM. It also gave a GI50 (OVCAR-8 ovarian) of 13.8 µM, a TGI (OVCAR-8 ovarian) of 27.6 µM and a GI50 (A498 renal) of 15.3 µM. It also gave a TGI (A498 renal) of 28.6 µM, a GI50 (T-47D breast) of 20.2 µM and a TGI (T-47D breast) of 35.7 µM. The GI50 (SK-MEL-28 melanoma) was 16.4 µM, the TGI (SK-MEL-28 melanoma) was 30 µM and the GI50 (HCC-2998 colon) was 17.7 µM. It also gave a TGI (HCC-2998 colon) of 31.6 µM, a GI50 (SNB-19 CNS) of 19.8 µM and a TGI (SNB-19 CNS) of 39.5 µM. The GI50 (DU-145 prostate) was 16.3 µM, the TGI (DU-145 prostate) was 32.6 µM and the GI50 (NCI/ADR-RES ovarian) was 19.5 µM. It also gave a TGI (NCI/ADR-RES ovarian) of 41.3 µM, a GI50 (MOLT-4 leukemia) of 13.1 µM and a TGI (MOLT-4 leukemia) of 25.8 µM. The GI50 (MALME-3M melanoma) was 4.68 µM, the TGI (MALME-3M melanoma) was 16.2 µM and the GI50 (HOP-62 NSCLC) was 13.7 µM. It also gave a TGI (HOP-62 NSCLC) of 26.7 µM, a GI50 (NCI-H460 NSCLC) of 18.6 µM and a TGI (NCI-H460 NSCLC) of 32.6 µM. For the same molecule, the GI50 (PC-3 prostate) was 17.5 µM, the TGI (PC-3 prostate) was 34.3 µM and the GI50 (HL-60(TB) leukemia) was 15 µM. For the same molecule, the TGI (HL-60(TB) leukemia) was 28.2 µM, the GI50 (SF-268 CNS) was 18.1 µM and the TGI (SF-268 CNS) was 32.3 µM. For the same molecule, the GI50 (OVCAR-5 ovarian) was 20.8 µM, the TGI (OVCAR-5 ovarian) was 44 µM and the GI50 (OVCAR-3 ovarian) was 15.8 µM. It also gave a TGI (OVCAR-3 ovarian) of 30.7 µM, a GI50 (NCI-H23 lung) of 16.1 µM and a TGI (NCI-H23 lung) of 29.8 µM. It also gave a GI50 (MDA-MB-231 breast) of 15.4 µM and a TGI (MDA-MB-231 breast) of 30.7 µM.
